Laboratory results as given in US20110230481A2, “DERIVATIVES OF TETRABROMOBENZIMIDAZOLE, A PROCESS FOR THE PREPARATION THEREOF, A PHARMACEUTICAL COMPOSITION COMPRISING THE SAME, A METHOD OF USING THE SAME, A METHOD FOR MODULATING OR REGULATING SERINE/THREONINE KINASES, AND SERINE/THREONINE KINASES MODULATING AGENT” (SELVITA S.A., priority 2009, published 2011).
≈ marks a conversion by molar mass, not a printed value. Like-named read-outs stand apart in the source and are kept apart here.

Columns and labels:
[1] = tested on: human breast adenocarcinoma MCF7 cells; experiment: Growth inhibition test (MTS); format: cell-based; conditions: MCF-7; 72 hours
Procedure: (§1) Two thousand cells of human breast adenocarcinoma MCF7 were inoculated into each well of a 96-well microplate (manufactured by Corning Corp.), and using DMEM medium (culture medium) containing 10% fetal calf serum (FCS). The same day, a dimethyl sulfoxide (DMSO) solution of each test compound prepared in a concentration of 10 mmol/L was further diluted with DMSO to the desired concentrations (0.1, 0.5, 1, 2.5, 5 and 10 micromol/L), and the diluted solution was added to each well. The individual wells were further cultured in 5% carbon dioxide at 37° C. for 72 hours. After completion of the culture, 10 μl MTS (3-(4,5-Dimethyl-2-thiazolyl)-5-(carboxymethoxyphenyl)-2-(4-sulfophenyl)-2H-tetrazolium, inner salt assay (CellTiter96® AQueous One Solution Cell Proliferation Assay, Promega) was added to each well, and culturing was performed in 5% carbon dioxide at 37° C. for 2 hours. Using a microplate spectrophotometer (Synergy 2 multi-mode microplate reader (BioTek)), the absorbance of each well was measured at 490 nm. The value for cells not incorporated with a test compound was designated as 100%. By comparing these values with the absorbance difference obtained at the well in which each test compound was added, the cell viability (% viability) after treatment with the test compound was calculated.

[2] = Solubility in pH 7.4; conditions: phosphate buffer
[3] = molecular target: T1, PKAC-alpha (Homo sapiens, UniProt P17612); experiment: KINOMEscan Max; format: binding
T1 construct: purchased Ambit (KINOMEscan Max service)
Procedure: (§2) Kinase panel profiling was performed at Ambit Kinomescan (http://www.ambitbio.com/technology/) using the “KINOMEscan™ Max” assay platform, a high-throughput method for screening small molecule compounds against large numbers of human kinases. KINOMEscan™ is based on a competition binding assay that quantitatively measures the ability of a compound to compete with an immobilized, active-site directed ligand. The assay is performed by combining three components: DNA-tagged kinase; immobilized ligand; and a test compound. The ability of the test compound to compete with the immobilized ligand is measured via quantitative PCR of the DNA tag. For a description of Ambit's assay protocol, see Fabian et al. A small molecule-kinase interaction map for clinical kinase inhibitors. Nat. Biotechnol. 23, 329-336 (2005).

[4] = molecular target: T2, JAK3(JH1domain-catalytic) (Homo sapiens, UniProt P52333); experiment: KINOMEscan Max; format: binding
T2 construct: JAK3(JH1domain-catalytic); purchased Ambit Kinomescan (contract panel)
Procedure: as §2

[5] = molecular target: T3, KIT(L576P) (Homo sapiens, UniProt P10721, L576P); experiment: KINOMEscan Max; format: binding
T3 construct: purchased Ambit (KINOMEscan Max service)
Procedure: as §2

[6] = molecular target: CLK1 (Homo sapiens, UniProt P49759); experiment: Radiometric kinase assay (HotSpot)
[7] = tested on: neoplastic cell lines; experiment: MTS cytotoxicity, panel of cancer cell lines; format: cell-based, human; conditions: majority of the tested cancer cell lines; read-out: general cytotoxic activity (compound concentration that results in death of 50% of the cell)
Procedure: as §1, with “Ten” for “Two”, “chronic myelocytic leukemia K562” for “breast adenocarcinoma MCF7”, “Corp.)” for “Corp.), and”, “Iscove's MDM” for “DMEM”
as §1, with “prostate” for “breast”, “PC3” for “MCF7”, “F12K (Ham's F12:[…] 1:1)” for “DMEM”, “The same day, a dimethyl sulfoxide (DMSO) solution of each test compound prepared in a concentration of 10 mmol/L was further diluted with DMSO to the desired concentrations (0.1, 0.5, 1, 2.5, 5 and 10 micromol/L), and the diluted solution was added to each well. The individual wells were further cultured in 5% carbon dioxide at 37° C. for 72 hours.” left out
as §1, with “prostate carcinoma DU145” for “breast adenocarcinoma MCF7”, “The same day, a dimethyl sulfoxide (DMSO) solution of each test compound prepared in a concentration of 10 mmol/L was further diluted with DMSO to the desired concentrations (0.1, 0.5, 1, 2.5, 5 and 10 micromol/L), and the diluted solution was added to each well. The individual wells were further cultured in 5% carbon dioxide at 37° C. for 72 hours.” left out, “innersalt” for “inner salt”, “calculated. […]” for “calculated.”

Sequence of CLK1 (P49759 whole entry): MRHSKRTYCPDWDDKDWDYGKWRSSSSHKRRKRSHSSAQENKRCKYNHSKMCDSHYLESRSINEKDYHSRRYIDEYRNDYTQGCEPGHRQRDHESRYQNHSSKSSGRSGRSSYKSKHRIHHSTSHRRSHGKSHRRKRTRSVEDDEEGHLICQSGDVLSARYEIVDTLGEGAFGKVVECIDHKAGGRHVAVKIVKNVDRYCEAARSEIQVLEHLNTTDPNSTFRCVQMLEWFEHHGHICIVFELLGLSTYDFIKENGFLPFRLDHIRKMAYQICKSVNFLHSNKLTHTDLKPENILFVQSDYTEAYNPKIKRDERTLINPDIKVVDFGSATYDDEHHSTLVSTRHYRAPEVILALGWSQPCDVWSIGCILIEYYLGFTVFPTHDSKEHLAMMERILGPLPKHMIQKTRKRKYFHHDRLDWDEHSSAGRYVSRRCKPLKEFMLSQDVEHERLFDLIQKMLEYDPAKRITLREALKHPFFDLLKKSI
T2 sequence (P52333 822-1111 limits assumed): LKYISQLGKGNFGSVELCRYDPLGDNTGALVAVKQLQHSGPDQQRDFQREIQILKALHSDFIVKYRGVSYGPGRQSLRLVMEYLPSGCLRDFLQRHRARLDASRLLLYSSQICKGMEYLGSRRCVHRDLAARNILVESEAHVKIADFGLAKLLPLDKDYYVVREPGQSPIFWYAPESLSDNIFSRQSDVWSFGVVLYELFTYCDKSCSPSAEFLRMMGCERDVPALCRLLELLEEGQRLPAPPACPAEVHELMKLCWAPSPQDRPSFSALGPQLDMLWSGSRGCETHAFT
T3 sequence (P10721 26-976 L576P): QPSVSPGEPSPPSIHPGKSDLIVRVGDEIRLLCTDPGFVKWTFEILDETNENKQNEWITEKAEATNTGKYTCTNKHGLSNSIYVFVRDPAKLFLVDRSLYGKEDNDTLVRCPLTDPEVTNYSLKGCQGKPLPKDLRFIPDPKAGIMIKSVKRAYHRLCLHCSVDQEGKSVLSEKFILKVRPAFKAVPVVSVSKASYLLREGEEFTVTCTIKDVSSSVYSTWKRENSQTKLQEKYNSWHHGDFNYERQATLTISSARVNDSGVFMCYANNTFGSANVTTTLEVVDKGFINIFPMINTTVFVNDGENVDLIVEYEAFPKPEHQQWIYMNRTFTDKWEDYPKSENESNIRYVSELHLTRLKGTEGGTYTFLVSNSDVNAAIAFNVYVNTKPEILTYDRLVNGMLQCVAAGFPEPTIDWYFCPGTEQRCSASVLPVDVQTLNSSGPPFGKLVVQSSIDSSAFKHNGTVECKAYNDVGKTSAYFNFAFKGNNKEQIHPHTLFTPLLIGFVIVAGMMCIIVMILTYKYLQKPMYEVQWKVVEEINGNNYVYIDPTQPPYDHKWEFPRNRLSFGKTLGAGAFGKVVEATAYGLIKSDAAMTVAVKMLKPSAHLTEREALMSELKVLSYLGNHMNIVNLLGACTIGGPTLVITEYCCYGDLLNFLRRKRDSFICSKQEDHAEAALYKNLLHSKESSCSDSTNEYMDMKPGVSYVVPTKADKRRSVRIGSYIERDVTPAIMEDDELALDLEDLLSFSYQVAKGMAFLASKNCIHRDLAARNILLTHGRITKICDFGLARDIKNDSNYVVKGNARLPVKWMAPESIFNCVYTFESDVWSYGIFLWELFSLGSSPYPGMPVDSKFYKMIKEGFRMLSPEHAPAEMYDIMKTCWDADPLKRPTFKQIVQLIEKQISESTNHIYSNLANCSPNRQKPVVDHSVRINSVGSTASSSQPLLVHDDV

solubility at 24 h [2]	Compound	Cytotoxicity in MTS assay (ED50) [1]	EC50 [7]	other results
	Brc1c(Br)c(Br)c2[nH]c(NCCN3CCCCC3)nc2c1Br [Compound 13, 4,5,6,7-tetrabromo-N-(2-(piperidin-1-yl)ethyl)-1H-benzo[d]imidazol-2-amine]			IC50 [6]: 594 nM
31 µM (≈ 16.9 µg/mL)	Brc1c(Br)c(Br)c2[nH]c(NCCN3CCCC3)nc2c1Br [Compound 14, 4,5,6,7-tetrabromo-N-(2-(pyrrolidin-1-yl)ethyl)-1H-benzo[d]imidazol-2-amine]			
23 µM (≈ 12.9 µg/mL)	Brc1c(Br)c(Br)c2[nH]c(NCCN3CCOCC3)nc2c1Br [Compound 16, 4,5,6,7-tetrabromo-N-(2-morpholinoethyl)-1H-benzo[d]imidazol-2-amine]	>10 µM		
< 10 µM	CN1CCN(c2nc3c(Br)c(Br)c(Br)c(Br)c3[nH]2)CC1 [Compound 21, 4,5,6,7-tetrabromo-2-(4-methylpiperazin-1-yl)-1H-benzo[d]imidazole]	>10 µM		
	Brc1c(Br)c(Br)c2c(Br)n[nH]c2c1Br [Compound K64, reference compound]		> 10 µM	
	CN(C)c1nc2c(Br)c(Br)c(Br)c(Br)c2n1CC(=O)O [Compound K66, reference compound]		> 10 µM	
	CN(C)c1nc2c(Br)c(Br)c(Br)c(Br)c2[nH]1 [DMAT, reference compound]	>10 µM	> 10 µM	IC50 ([6]; read-out: Inhibitory activity (IC50 in nM) in radiometric cell free assay, CLK1, ATP 1 μM, Myelin Basic Protein 10 μM): 211 nM
	Brc1c(Br)c(Br)c2[nH]nnc2c1Br [TBB, reference compound]		> 10 µM	
	Brc1c(Br)c(Br)c2[nH]cnc2c1Br [TBI, reference compound]		> 10 µM	

Compound	solubility at 24 h [2]	Cytotoxicity in MTS assay (ED50) [1]	EC50 [7]	other results
NCCCNc1nc2c(Br)c(Br)c(Br)c(Br)c2[nH]1 [Compound 11, N-(3-aminopropyl)-4,5,6,7-tetrabromo-1H-benzo[d]imidazol-2-amine]	370 µM (≈ 187 µg/mL)	5.34 µM		remaining binding at 1 µM [3]: 68%; remaining binding at 1 µM [4]: 100%; remaining binding at 1 µM [5]: 83%; IC50 [6]: 177 nM
